From US8946439B2, “Amide compounds, compositions and uses thereof” (Evotec AG, priority 2008, dated 2015)
Read-outs that look alike come from different tables or passages of the source.

Key:
hP2X3 = target: T1, hP2X3 (Homo sapiens, UniProt P56373); assay: Calcium uptake assay (P2X antagonist assay), P2X3 homomer; format: cell-based
T1 construct: expressed in transfected cells; host or cells: e.g. HEK293 or 1321N1
T1 sequence (P56373 1-397): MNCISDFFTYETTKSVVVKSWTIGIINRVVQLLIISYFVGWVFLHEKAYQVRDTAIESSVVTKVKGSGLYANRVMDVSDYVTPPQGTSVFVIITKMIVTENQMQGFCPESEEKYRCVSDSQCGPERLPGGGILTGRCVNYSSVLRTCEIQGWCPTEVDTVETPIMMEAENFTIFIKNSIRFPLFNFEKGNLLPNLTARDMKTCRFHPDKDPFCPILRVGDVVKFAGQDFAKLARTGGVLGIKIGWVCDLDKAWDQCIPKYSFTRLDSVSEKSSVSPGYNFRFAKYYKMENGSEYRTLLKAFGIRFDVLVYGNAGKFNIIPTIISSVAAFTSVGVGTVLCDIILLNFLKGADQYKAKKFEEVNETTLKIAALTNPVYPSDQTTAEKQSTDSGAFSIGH
Procedure, shortened: (§1)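 Stably or transiently transfected HEK293 or 1321N1 cells; the heteromer is made by adding P2X3 to a P2X2-stable line, with heteromer function isolated pharmacologically. The peak-minus-baseline FLIPR calcium signal gives % inhibition and a 4-parameter-logistic IC50.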

hP2X2/3H = target: T2, hP2X2/3H (Homo sapiens, UniProt P56373+Q9UBL9); assay: Calcium uptake assay (P2X antagonist assay), P2X2/3 heteromer; format: cell-based
T2 construct: expressed in transfected cells; host or cells: e.g. HEK293 or 1321N1
T2 sequence (Q9UBL9 1-471): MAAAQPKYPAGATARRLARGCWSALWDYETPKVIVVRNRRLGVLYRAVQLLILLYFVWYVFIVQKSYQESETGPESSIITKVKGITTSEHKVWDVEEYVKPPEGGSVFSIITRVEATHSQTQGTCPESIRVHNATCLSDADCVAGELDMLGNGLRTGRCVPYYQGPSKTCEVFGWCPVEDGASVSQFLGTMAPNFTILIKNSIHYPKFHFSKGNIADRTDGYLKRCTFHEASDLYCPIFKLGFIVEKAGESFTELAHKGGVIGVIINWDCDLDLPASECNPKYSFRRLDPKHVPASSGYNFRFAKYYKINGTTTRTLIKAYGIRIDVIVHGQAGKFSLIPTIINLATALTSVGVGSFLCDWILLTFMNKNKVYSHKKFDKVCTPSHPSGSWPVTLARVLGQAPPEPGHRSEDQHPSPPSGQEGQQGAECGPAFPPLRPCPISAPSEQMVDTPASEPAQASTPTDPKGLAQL
T2 sequence (P56373 1-397): T1 sequence (P56373 1-397)
Procedure, shortened: as §1

[1] = Ca influx (calcium uptake assay), hP2X3, read-out: IC50 hP2X3
[2] = Ca influx (calcium uptake assay), hP2X2/3H, read-out: IC50 hP2X2/3H
[3] = calcium uptake assay, hP2X3, read-out: IC50 hP2X3 (nM), Ca Influx
[4] = calcium uptake assay, hP2X2/3H, read-out: IC50 hP2X2/3H (nM), Ca Influx

| Structure (SMILES) | IC50 (hP2X3; [1]) [nM] | IC50 (hP2X2/3H; [2]) [nM] | IC50 (hP2X3; [3]) [nM] | IC50 (hP2X2/3H; [4]) [nM] | other results |
| --- | --- | --- | --- | --- | --- |
| Cc1ccc(-c2cc(C(=O)N[C@H](C)c3ccc(C)nc3)cc(C(O)c3ccccc3)c2)c(C#N)c1 (stereo partly drawn) [Compound 279] | < 100 | < 100 | – | – | – |
| Cc1ccc(-c2cc(C(=O)NC(C)c3ccc(Cl)cc3Cl)cc(S(C)(=O)=O)c2)nc1 (stereo not drawn) [Compound 387] | 100 to 500 | > 1000 | – | – | – |
| Cc1ccc(-c2cc(C(=O)N[C@H](C)c3cnc(C)nc3)cc(C(C)(C)O)c2)cc1 [Compound 398] | – | – | – | – | IC50 (hP2X3; Ca influx, calcium uptake assay, read-out: IC50 hP2X3): < 100 nM; IC50 (hP2X2/3H; Ca influx, calcium uptake assay, read-out: IC50 hP2X2/3H): < 100 nM |
| Cc1ccc(CNC(=O)c2cc(C(=O)N3CCCC3)cc(-c3ccc(Br)cc3)c2)cn1 [Compound 200, 4′-Bromo-N-((6-methylpyridin-3-yl)methyl)-5-(pyrrolidine-1-carbonyl)biphenyl-3-carboxamide] | < 100 | < 100 | – | – | – |
| Cc1ccc(-c2cc(C(=O)N[C@H](C)c3cnc(C)nc3)cc(C(O)CO)c2)cc1 (stereo partly drawn) [Compound 361] | < 100 | 100 to 500 | – | – | – |
| Cc1ccc(-c2cc(C(=O)N[C@H](CCO)c3ccc(C)nc3)cc(S(C)(=O)=O)c2)cc1 [Compound 205] | < 100 | < 100 | – | – | – |
| Cc1ccc(-c2cc(C(=O)NCc3ccc(C)nc3)cc(C(=O)N3C[C@H]4CNC[C@H]4C3)c2)cc1 [Compound 140, 4′-Methyl-N-((6-methylpyridin-3-yl)methyl)-5-((3aR,6aS)-octahydropyrrolo[3,4-c]pyrrole-2-carbonyl)biphenyl-3-carboxamide] | – | – | 100 to 500 | 100 to 500 | – |
| COc1ncc([C@@H](C)NC(=O)c2cc(-c3ccc(C)cc3)cc(S(C)(=O)=O)c2)cn1 [Compound 114] | – | – | < 100 | 100 to 500 | – |
| COCC(CO)Oc1cc(C(=O)N[C@H](C)c2ccc(C)nc2)cc(-c2ccc(C)cn2)c1 (stereo partly drawn) [Compound 348] | < 100 | < 100 | – | – | – |
| Cc1ccc(-c2cc(C(=O)NCc3ccc(C)nc3)cc(C(O)CN3CC(O)C3)c2)cc1 (stereo not drawn) [Compound 388] | < 100 | 100 to 500 | – | – | – |
| Cc1ccc(-c2cc(C(=O)NCc3ccc(C)nc3)cc(C(F)(F)F)c2)cc1 [Compound 204] | > 1000 | 501 to 1000 | – | – | – |
| Cc1ccc(-c2cc(OC3CCOC3)cc(C(=O)N[C@H](C)c3cnc(C)nc3)c2)cc1 (stereo partly drawn) [Compound 359] | < 100 | < 100 | – | – | – |
| Cc1ccc(-c2cc(C(=O)N[C@@H](C)CO)cc(S(=O)(=O)CC(C)C)c2)cc1 [Compound 281] | < 100 | > 1000 | – | – | – |
| COCC(OC)c1cc(C(=O)N[C@H](C)c2ccc(C)nc2)cc(-c2ccc(C)cc2)c1 (stereo partly drawn) [Compound 380] | < 100 | < 100 | – | – | – |
| Cc1ccc(-c2cc(C(=O)NCc3ccc(Cl)nc3)cc(C(=O)N3CC(O)C3)c2)cc1 [Compound 131] | – | – | < 100 | < 100 | – |
| Cc1ccc(-c2cc(C(=O)N[C@H](C)c3ccc(C)nc3)cc(C(=O)c3ccccc3)c2)cc1 [Compound 229, (R)-5-Benzoyl-4′-methyl-N-(1-(6-methylpyridin-3-yl)ethyl)biphenyl-3-carboxamide] | 100 to 500 | < 100 | – | – | – |
| Cc1ccc(-c2cc(C(=O)NCc3cnc(C)nc3)cc(S(=O)(=O)CC(C)C)c2)cc1 [Compound 184] | – | – | < 100 | < 100 | – |
| Cc1ccc(-c2cc(C(=O)N[C@H](C)c3cnc(C)nc3)cc(C(O)C(F)(F)F)c2)c(C#N)c1 (stereo partly drawn) [Compound 353] | < 100 | < 100 | – | – | – |
| Cc1ccc(-c2cc(C(=O)NCc3ccc(C)nc3)cc(C(O)CN(C)C)c2)cc1 (stereo not drawn) [Compound 367] | < 100 | > 1000 | – | – | – |
| COCCOc1cc(C(=O)N[C@H](C)c2ccc(C)nc2)cc(-c2ccc(C)cc2)c1 [Compound 249] | < 100 | < 100 | – | – | – |
| Cc1ccc(-c2cc(C(=O)N[C@H](C)c3ccc(C(F)(F)F)nc3)cc(S(C)(=O)=O)c2)cc1 [Compound 35] | – | – | < 100 | < 100 | – |

Further lines, with some results ahead:

| IC50 (hP2X3; [1]) [nM] | IC50 (hP2X2/3H; [2]) [nM] | IC50 (hP2X3; [3]) [nM] | IC50 (hP2X2/3H; [4]) [nM] | Structure (SMILES) | other results |
| --- | --- | --- | --- | --- | --- |
| < 100 | < 100 | – | – | CCS(=O)(=O)c1cc(C(=O)NCc2cnc(C)nc2)cc(-c2ccc(C)cc2)c1 [Compound 212] | – |
| < 100 | < 100 | – | – | Cc1ccc(-c2cc(C(=O)N[C@H](C)c3ccc(C)nc3)cc(C(O)c3nccs3)c2)nc1 (stereo partly drawn) [Compound 291] | – |
| – | – | < 100 | < 100 | Cc1ccc(-c2cc(C(=O)NCc3cnc(C)nc3)cc(C(=O)N3CCCCC3)c2)cc1 [Compound 18, 4′-Methyl-N-((2-methylpyrimidin-5-yl)methyl)-5-(piperidine-1-carbonyl)biphenyl-3-carboxamide] | – |
| – | – | > 1000 | > 1000 | Cc1ccc(CNC(=O)c2cc(-c3ccc(Cl)c(C)c3)cc(S(C)(=O)=O)c2)cn1 [Compound 119] | – |
| < 100 | < 100 | – | – | Cc1ccc(-c2cc(Oc3nccs3)cc(C(=O)N[C@H](C)c3ccc(C)nc3)c2)c(C#N)c1 [Compound 255] | – |
| – | – | 100 to 500 | 100 to 500 | Cc1ccc(-c2cc(C(=O)N[C@H](CCO)c3ccc(C)nc3)cc(C(=O)N(C)CC(C)C)c2)cc1 [Compound 13, (R)—N3-(3-Hydroxy-1-(6-methylpyridin-3-yl)propyl)-N5-isobutyl-N5,4′-dimethylbiphenyl-3,5-dicarboxamide] | – |
| – | – | < 100 | < 100 | Cc1ccc(-c2cc(C(=O)NCc3ccc(C)nc3)cc(C(=O)N3CC(O)C3)c2)cc1 [Compound 132] | – |
| 100 to 500 | < 100 | – | – | Cc1ccc(-c2cc(Oc3nc(Cl)cs3)cc(C(=O)N[C@H](C)c3ccc(C)nc3)c2)cc1 [Compound 341] | – |
| 100 to 500 | > 1000 | – | – | Cc1ccc(-c2cc(C(=O)NCc3ccc(C)nc3)cc(C(F)(F)F)c2)nc1 [Compound 202] | – |
